In patent US8283358B2, “N-sulfonamido polycyclic pyrazolyl compounds” (Elan Pharmaceuticals, Inc., priority 2008, dated 2012):

target: T1, gamma-secretase (partially purified extract of IMR-32 cell membranes; substrate MBP-C125 Swe fusion protein, cleavage at the Aβ40 site) (Homo sapiens, UniProt P49768); assay: Gamma-secretase APP enzyme assay (Example A); format: biochemical; conditions: class symbols; assay described in Example A; read-out: γAPP IC50
T1 construct: a partially purified extract of IMR-32 cell membranes as the gamma-secretase enzyme preparation; endogenous in cells; host or cells: IMR-32 cell membranes, partially purified extract
Text: The gamma-secretase APP enzyme assay was designed to measure the specific proteolytic cleavage of an APP substrate (MBP-C125 Swe fusion protein) at the Aβ40 site. […] This assay involved two steps beginning with the enzymatic reaction generating a cleavage product that was captured with an immobilized antibody specific for the neo-epitope Aβ40 site. The captured cleavage product was then detected in a sandwich ELISA assay with a biotinylated reporter antibody that is specific to Aβ(17-28). Streptavidin-linked alkaline phosphatase was then added that would generate a fluorescent signal proportional to the amount of cleavage product.
This warmed solution of BigCHAPS (N,N-Bis(3-D-gluconamidopropyl)cholamide) detergent was used to dissolve Brain Extract Type-V (lipid containing a minimum of 40% phosphatidylethanolamine) from Sigma (St. Louis, Mo.) to a concentration of 8 mg/ml. This solution containing BigCHAPS and lipid at 8 mg/ml is then diluted to 0.53 mg/ml lipid with a pre-warmed solution of Hepes and sodium chloride.
Gamma-secretase was then added to a 96-well micro-titre plate and then incubated with various concentrations of inhibitor for 30 minutes at 37° C. MBPC125 substrate was then added to initiate the reaction that would run for two hours at 37° C. The reaction was quenched with the addition of SDS to a final concentration of 0.1% and then 100 μl of the reaction mixture was transferred to a capture ELISA plate and incubated overnight at 4° C. Detection of the cleavage product was performed using a standard sandwich ELISA assay and quantified using a six point standard curve.

Compound	IC50 [nM]
Cn1ncc(C2CC3Cc4[nH]ncc4C(C2)N3S(=O)(=O)c2ccc(Cl)cc2)n1 (centres unmarked) [compound 140]	100 to 499
O=C1CCCN1c1ccc(C2CC3Cc4n[nH]cc4C(C2)N3S(=O)(=O)c2ccc(C(F)(F)F)cc2)cc1 (centres unmarked) [compound 141]	< 100
COC(=O)CCCNc1ccc(C2CC3Cc4n[nH]cc4C(C2)N3S(=O)(=O)c2ccc(C(F)(F)F)cc2)cc1 (centres unmarked) [compound 142]	< 100
O=C1c2n[nH]cc2C2c3cc(F)c(F)cc3C1N2S(=O)(=O)c1ccc(C(F)(F)F)nc1 (centres unmarked) [compound 148]	< 100
O=S(=O)(c1ccc(C(F)(F)F)nc1)N1C2Cc3n[nH]cc3C1c1c(F)ccc(F)c12 (centres unmarked) [compound 149]	100 to 499
O=S(=O)(c1ccc(C(F)(F)F)nc1)N1C2Cc3n[nH]cc3C1c1c(F)ccc(F)c12 (centres unmarked) [compound 150]	< 100
Cc1cc(F)cc2c1C1c3c[nH]nc3CC2N1S(=O)(=O)c1ccc(C(F)(F)F)nc1 (centres unmarked) [compound 159]	< 100
O=S(=O)(c1ccc(C(F)(F)F)cc1)N1C2Cc3[nH]ncc3C1c1ccc3ccccc3c12 (centres unmarked) [compound 160]	< 100
O=C1c2[nH]ncc2C2c3c(F)cccc3C1N2S(=O)(=O)c1ccc(C(F)(F)F)nc1 (centres unmarked) [compound 161]	< 100
O=S(=O)(c1ccc(C(F)(F)F)nc1)N1C2c3cn[nH]c3C(F)(F)C1c1cccc(F)c12 (centres unmarked) [compound 166]	< 100
N#Cc1ccc2c(c1)C1Cc3n[nH]cc3C2N1S(=O)(=O)c1ccc(C(F)(F)F)nc1 (centres unmarked) [compound 167]	< 100
O=S(=O)(c1ccc(C(F)(F)F)cc1)N1C2Cc3[nH]ncc3C1c1ccc3ccccc3c12 (centres unmarked) [compound 168]	< 100
O=S(=O)(c1ccc(C(F)(F)F)cc1)N1C2Cc3[nH]ncc3C1c1ccc3ccccc3c12 (centres unmarked) [compound 169]	100 to 499
O=S(=O)(c1ccc(C(F)(F)F)cc1)N1C2Cc3[nH]ncc3C1c1c2ccc2ccccc12 (centres unmarked) [compound 170]	< 100
O=S(=O)(c1ccc(C(F)(F)F)cc1)N1C2Cc3[nH]ncc3C1c1c2ccc2ccccc12 (centres unmarked) [compound 171]	100 to 499
O=C1c2[nH]ncc2C2c3ccccc3C1N2S(=O)(=O)c1ccc(C(F)(F)F)cc1 (centres unmarked) [compound 173]	< 100
O=S(=O)(c1ccc(C(F)(F)F)cc1)N1C2=Cc3c(-c4cccc(C(F)(F)F)c4)cccc3C1Cc1n[nH]cc12 (centres unmarked) [compound 177]	< 100
O=S(=O)(c1ccc(C(F)(F)F)nc1)N1C2Cc3n[nH]cc3C1c1cccc(F)c12 (centres unmarked) [compound 183]	< 100
O=S(=O)(c1ccc(C(F)(F)F)cc1)N1C2Cc3cccc(F)c3C1Cc1n[nH]cc12 (centres unmarked) [compound 190]	< 100
O=S(=O)(c1ccc(C(F)(F)F)cc1)N1C2Cc3cccc(F)c3C1Cc1n[nH]cc12 (centres unmarked) [compound 191]	< 100

Compound	IC50 [nM]
O=S(=O)(c1ccc(C(F)(F)F)nc1)N1C2Cc3[nH]ncc3C1c1ccccc12 (centres unmarked) [compound 197]	< 100
O=C1c2n[nH]cc2C2c3ccccc3C1N2S(=O)(=O)c1ccc(C(F)(F)F)nc1 (centres unmarked) [compound 200]	< 100
Cc1noc(-c2ccc3c(c2)C2c4cn[nH]c4CC3N2S(=O)(=O)c2ccc(C(F)(F)F)nc2)n1 (centres unmarked) [compound 201]	> 1000
Cc1noc(-c2ccc3c(c2)C2c4cn[nH]c4CC3N2S(=O)(=O)c2ccc(C(F)(F)F)nc2)n1 (centres unmarked) [compound 202]	> 1000
COC(=O)c1ccc2c(c1)C1c3cn[nH]c3CC2N1S(=O)(=O)c1ccc(C(F)(F)F)nc1 (centres unmarked) [compound 203]	> 1000
COC(=O)c1ccc2c(c1)C1c3cn[nH]c3CC2N1S(=O)(=O)c1ccc(C(F)(F)F)nc1 (centres unmarked) [compound 205]	100 to 499
O=S(=O)(c1ccc(C(F)(F)F)nc1)N1C2c3ccccc3C1[C@@H](F)c1n[nH]cc12 (some centres unmarked) [compound 206]	< 100
O=S(=O)(c1ccc(C(F)(F)F)nc1)N1C2c3c[nH]nc3[C@H](F)C1c1cccc(F)c12 (some centres unmarked) [compound 207]	< 100
O=S(=O)(c1ccc(C(F)(F)F)nc1)N1C2Cc3cccc(Br)c3[C@@H]1Cc1n[nH]cc12 [compound 212]	< 100
O=S(=O)(c1ccc(C(F)(F)F)nc1)N1C2Cc3cccc(Br)c3C1Cc1[nH]ncc12 (centres unmarked) [compound 213]	100 to 499
O=S(=O)(c1ccc(C(F)(F)F)nc1)N1C2c3cn[nH]c3C(F)(F)C1c1c(F)cccc12 (centres unmarked) [compound 215]	< 100
O=S(=O)(c1ccc(C(F)(F)F)nc1)N1C2c3c[nH]nc3[C@@H](O)C1c1c(F)cccc12 (some centres unmarked) [compound 216]	100 to 499
O=S(=O)(c1ccc(C(F)(F)F)nc1)N1C2Cc3cccc(Br)c3C1c1cn[nH]c1C2 (centres unmarked) [compound 218]	< 100
O=S(=O)(c1ccc(C(F)(F)F)nc1)N1C2Cc3[nH]ncc3C1c1cc(Cl)ccc12 (centres unmarked) [compound 221]	100 to 499
O=S(=O)(c1ccc(C(F)(F)F)nc1)N1C2Cc3[nH]ncc3C1c1cc(Cl)ccc12 (centres unmarked) [compound 222]	< 100
COC(=O)c1cccc2c1C1Cc3[nH]ncc3C2N1S(=O)(=O)c1ccc(C(F)(F)F)nc1 (centres unmarked) [compound 226]	< 100
COC(=O)c1cccc2c1C1Cc3[nH]ncc3C2N1S(=O)(=O)c1ccc(C(F)(F)F)nc1 (centres unmarked) [compound 227]	100 to 499
O=S(=O)(c1ccc(C(F)(F)F)nc1)N1C2Cc3[nH]ncc3C1c1cccc(Cl)c12 (centres unmarked) [compound 228]	< 100
O=S(=O)(c1ccc(C(F)(F)F)nc1)N1C2Cc3[nH]ncc3C1c1cccc(Cl)c12 (centres unmarked) [compound 229]	100 to 499
Cc1noc(-c2cccc3c2C2Cc4[nH]ncc4C3N2S(=O)(=O)c2ccc(C(F)(F)F)nc2)n1 (centres unmarked) [compound 234]	< 100

Compound	IC50 [nM]
Cc1noc(-c2cccc3c2C2Cc4[nH]ncc4C3N2S(=O)(=O)c2ccc(C(F)(F)F)nc2)n1 (centres unmarked) [compound 235]	100 to 499
O=C1c2[nH]ncc2C2c3c(F)cccc3C1N2S(=O)(=O)c1ccc(Cl)cc1 (centres unmarked) [compound 236]	< 100
O=S(=O)(c1ccc(C(F)(F)F)nc1)N1C2c3c[nH]nc3[C@H](O)C1c1cccc(F)c12 (some centres unmarked) [compound 237]	> 1000
O=S(=O)(c1ccc(C(F)(F)F)nc1)N1C2c3cn[nH]c3[C@@H](O)C1c1cccc(F)c12 (some centres unmarked) [compound 238]	< 100
O=S(=O)(c1ccc(C(F)(F)F)nc1)N1C2c3c[nH]nc3[C@H](O)C1c1c(F)cccc12 (some centres unmarked) [compound 239]	> 1000
O=S(=O)(c1ccc(C(F)(F)F)nc1)N1C2c3c[nH]nc3[C@@H](O)C1c1c(F)cccc12 (some centres unmarked) [compound 240]	100 to 499
O=S(=O)(c1ccc(C(F)(F)F)nc1)N1C2Cc3[nH]ncc3C1c1cc(-c3ccc(F)cc3)ccc12 (centres unmarked) [compound 241]	< 100
O=C1c2[nH]ncc2C2c3c(F)cccc3C1N2S(=O)(=O)c1ccc(Cl)cc1 (centres unmarked) [compound 242]	< 100
O=C1c2[nH]ncc2C2c3c(F)cccc3C1N2S(=O)(=O)c1ccc(Cl)cc1 (centres unmarked) [compound 243]	100 to 499
O=S(=O)(c1ccc(C(F)(F)F)nc1)N1C2Cc3[nH]ncc3C1c1cc(Br)ccc12 (centres unmarked) [compound 250]	< 100
O=S(=O)(c1ccc(C(F)(F)F)nc1)N1C2Cc3[nH]ncc3C1c1cc(Br)ccc12 (centres unmarked) [compound 251]	100 to 499
O=S(=O)(c1ccc(C(F)(F)F)nc1)N1C2Cc3n[nH]cc3C1c1cccc(CO)c12 (centres unmarked) [compound 252]	< 100
O=S(=O)(c1ccc(C(F)(F)F)nc1)N1C2Cc3n[nH]cc3C1c1nc(-c3ccc(F)cc3)ccc12 (centres unmarked) [compound 254]	100 to 499
O=S(=O)(c1ccc(C(F)(F)F)nc1)N1C2Cc3[nH]ncc3C1c1nc(C3CC3)ccc12 (centres unmarked) [compound 255]	100 to 499
O=S(=O)(c1ccc(C(F)(F)F)nc1)N1C2Cc3[nH]ncc3C1c1nc(C3CC3)ccc12 (centres unmarked) [compound 256]	> 1000
CC#Cc1ccc2c(c1)[C@@H]1c3cn[nH]c3C[C@@H]2N1S(=O)(=O)c1ccc(C(F)(F)F)nc1 [compound 261]	100 to 499
O=S(=O)(c1ccc(C(F)(F)F)nc1)N1C2/C(=N/O)c3[nH]ncc3C1c1cccc(Cl)c12 (centres unmarked) [compound 265]	< 100
O=S(=O)(c1ccc(C(F)(F)F)nc1)N1[C@H]2c3cn[nH]c3[C@H](F)[C@@H]1c1cccc(F)c12 [compound 267]	< 100
O=S(=O)(c1ccc(C(F)(F)F)nc1)N1[C@@H]2c3cn[nH]c3[C@H](F)[C@H]1c1cccc(F)c12 [compound 268]	> 1000

same assay, conditions: numeric bounds given instead of class symbols; assay described in Example A; read-out: γAPP IC50

Compound	IC50 [nM]
Cn1ncc(C2CC3Cc4[nH]ncc4C(C2)N3S(=O)(=O)c2ccc(Cl)cc2)n1 (centres unmarked) [compound 139]	> 300
Cc1cc(F)cc2c1C1c3c[nH]nc3CC2N1S(=O)(=O)c1ccc(C(F)(F)F)nc1 (centres unmarked) [compound 158]	> 10
O=S(=O)(c1ccc(C(F)(F)F)nc1)N1C2Cc3[nH]ncc3C1c1ccccc12 (centres unmarked) [compound 196]	> 30

same assay, conditions: γAPP IC50 (nM), class symbols; assay described in Example A

Compound	IC50 [nM]
O=S(=O)(c1ccc(C(F)(F)F)nc1)N1C2Cc3n[nH]cc3C1c1ncsc12 (centres unmarked) [compound 187]	100 to 499
O=S(=O)(c1ccc(C(F)(F)F)nc1)N1C2Cc3n[nH]cc3C1c1ncsc12 (centres unmarked) [compound 188]	> 1000
O=S(=O)(c1ccc(C(F)(F)F)nc1)N1C2Cc3n[nH]cc3C1c1ncsc12 (centres unmarked) [compound 189]	100 to 499
